# Experimental data: ChEMBL document CHEMBL3885881, “DrugMatrix”
# Organism: Rattus norvegicus
# Assay: DrugMatrix - Regimen: Daily Repeat
# Format: toxicity, organism-based, Sprague-Dawley
# Parameters: regimen Daily Repeat, gender Male, age 6-8 weeks
# Conditions: in vivo, po, 34 mg/kg, route oral GAVAGE, dose level Low, vehicle .5 % CMC; for ABSOLUTE BASOPHIL / ABSOLUTE EOSINOPHIL / ABSOLUTE LYMPHOCYTE / ABSOLUTE MONOCYTE / ABSOLUTE SEGMENTED NEUTROPHIL / BASOPHIL / EOSINOPHIL / ERYTHROCYTE COUNT / HEMATOCRIT / HEMOGLOBIN / LEUKOCYTE COUNT / LYMPHOCYTE / MEAN CORPUSCULAR HEMOGLOBIN / MEAN CORPUSCULAR HEMOGLOBIN CONCENTRATION / MEAN CORPUSCULAR VOLUME / MONOCYTE / NEUTROPHIL / NUCLEATED RED BLOOD CELLS / PLATELET COUNT: tissue Blood; for ALANINE AMINOTRANSFERASE / ALBUMIN / ALKALINE PHOSPHATASE / ASPARTATE AMINOTRANSFERASE / BLOOD UREA NITROGEN / CARBON DIOXIDE / CHLORIDE / CHOLESTEROL / CREATINE PHOSPHOKINASE / CREATININE / GLUCOSE / LACTATE DEHYDROGENASE / LIPASE / PHOSPHORUS / POTASSIUM / SODIUM / TOTAL BILIRUBIN / TOTAL PROTEIN / URIC ACID: tissue Plasma
smiles,measurement,setting,value
Cc1cccc(Nc2cc(Cl)nc(SCC(=O)O)n2)c1C [PIRINIXIC ACID],ABSOLUTE BASOPHIL,"72 h, time 3 day",0 CELLS/uL
same,ABSOLUTE EOSINOPHIL,"72 h, time 3 day",24.33 CELLS/uL
same,ABSOLUTE LYMPHOCYTE,"72 h, time 3 day",9231.67 CELLS/uL
same,ABSOLUTE MONOCYTE,"72 h, time 3 day",145 CELLS/uL
same,ABSOLUTE SEGMENTED NEUTROPHIL,"72 h, time 3 day",1199 CELLS/uL
same,BASOPHIL,"72 h, time 3 day",0%
same,EOSINOPHIL,"72 h, time 3 day",0.33%
same,ERYTHROCYTE COUNT,"72 h, time 3 day",5.01 x10E6/uL
same,HEMATOCRIT,"72 h, time 3 day",31.77%
same,HEMOGLOBIN,"72 h, time 3 day",11.67 G/DL
same,LEUKOCYTE COUNT,"72 h, time 3 day",10.6 x10E3/uL
same,LYMPHOCYTE,"72 h, time 3 day",85.67%
same,MEAN CORPUSCULAR HEMOGLOBIN,"72 h, time 3 day",23.3 pg
same,MEAN CORPUSCULAR HEMOGLOBIN CONCENTRATION,"72 h, time 3 day",36.7 G/DL
same,MEAN CORPUSCULAR VOLUME,"72 h, time 3 day",63.5 fL
same,MONOCYTE,"72 h, time 3 day",1.67%
same,NEUTROPHIL,"72 h, time 3 day",12.33%
same,NUCLEATED RED BLOOD CELLS,"72 h, time 3 day",0 /100WBC
same,PLATELET COUNT,"72 h, time 3 day",1123.33 x10E3/uL
same,ALANINE AMINOTRANSFERASE,"72 h, time 3 day",55.67 u/L
same,ALBUMIN,"72 h, time 3 day",4.73 G/DL
same,ALKALINE PHOSPHATASE,"72 h, time 3 day",457.33 u/L
same,ASPARTATE AMINOTRANSFERASE,"72 h, time 3 day",87.33 u/L
same,BLOOD UREA NITROGEN,"72 h, time 3 day",13.33 mg/dL
same,CARBON DIOXIDE,"72 h, time 3 day",36.67 mmol/L
same,CHLORIDE,"72 h, time 3 day",100.33 MEQ/L
same,CHOLESTEROL,"72 h, time 3 day",52.67 mg/dL
same,CREATINE PHOSPHOKINASE,"72 h, time 3 day",447.33 u/L
same,CREATININE,"72 h, time 3 day",0.17 mg/dL
same,GLUCOSE,"72 h, time 3 day",140 mg/dL
same,LACTATE DEHYDROGENASE,"72 h, time 3 day",140 u/L
same,LIPASE,"72 h, time 3 day",8 u/L
same,PHOSPHORUS,"72 h, time 3 day",12.6 mg/dL
same,POTASSIUM,"72 h, time 3 day",6.61 MEQ/L
same,SODIUM,"72 h, time 3 day",143.77 MEQ/L
same,TOTAL BILIRUBIN,"72 h, time 3 day",0.1 mg/dL
same,TOTAL PROTEIN,"72 h, time 3 day",5.83 G/DL
same,URIC ACID,"72 h, time 3 day",0.87 mg/dL
same,ABSOLUTE BASOPHIL,"120 h, time 5 day",0 CELLS/uL
same,ABSOLUTE EOSINOPHIL,"120 h, time 5 day",0 CELLS/uL
same,ABSOLUTE LYMPHOCYTE,"120 h, time 5 day",7298 CELLS/uL
same,ABSOLUTE MONOCYTE,"120 h, time 5 day",306 CELLS/uL
same,ABSOLUTE SEGMENTED NEUTROPHIL,"120 h, time 5 day",1029.33 CELLS/uL
same,BASOPHIL,"120 h, time 5 day",0%
same,EOSINOPHIL,"120 h, time 5 day",0%
same,ERYTHROCYTE COUNT,"120 h, time 5 day",5.39 x10E6/uL
same,HEMATOCRIT,"120 h, time 5 day",34.73%
same,HEMOGLOBIN,"120 h, time 5 day",13.23 G/DL
same,LEUKOCYTE COUNT,"120 h, time 5 day",8.63 x10E3/uL
same,LYMPHOCYTE,"120 h, time 5 day",84.33%
same,MEAN CORPUSCULAR HEMOGLOBIN,"120 h, time 5 day",24.57 pg
same,MEAN CORPUSCULAR HEMOGLOBIN CONCENTRATION,"120 h, time 5 day",38.13 G/DL
same,MEAN CORPUSCULAR VOLUME,"120 h, time 5 day",64.5 fL
same,MONOCYTE,"120 h, time 5 day",3.67%
same,NEUTROPHIL,"120 h, time 5 day",12%
same,NUCLEATED RED BLOOD CELLS,"120 h, time 5 day",0 /100WBC
same,PLATELET COUNT,"120 h, time 5 day",1176.33 x10E3/uL
same,ALANINE AMINOTRANSFERASE,"120 h, time 5 day",55 u/L
same,ALBUMIN,"120 h, time 5 day",4.63 G/DL
same,ALKALINE PHOSPHATASE,"120 h, time 5 day",445.33 u/L
same,ASPARTATE AMINOTRANSFERASE,"120 h, time 5 day",92.67 u/L
same,BLOOD UREA NITROGEN,"120 h, time 5 day",10 mg/dL
same,CARBON DIOXIDE,"120 h, time 5 day",27.67 mmol/L
same,CHLORIDE,"120 h, time 5 day",105 MEQ/L
same,CHOLESTEROL,"120 h, time 5 day",39.67 mg/dL
same,CREATINE PHOSPHOKINASE,"120 h, time 5 day",609.67 u/L
same,CREATININE,"120 h, time 5 day",0.19 mg/dL
same,GLUCOSE,"120 h, time 5 day",179 mg/dL
same,LACTATE DEHYDROGENASE,"120 h, time 5 day",166.33 u/L
same,LIPASE,"120 h, time 5 day",9.33 u/L
same,PHOSPHORUS,"120 h, time 5 day",13.63 mg/dL
same,POTASSIUM,"120 h, time 5 day",5.28 MEQ/L
same,SODIUM,"120 h, time 5 day",147.67 MEQ/L
same,TOTAL BILIRUBIN,"120 h, time 5 day",0.0333 mg/dL
same,TOTAL PROTEIN,"120 h, time 5 day",6.17 G/DL
same,URIC ACID,"120 h, time 5 day",1.6 mg/dL
